Reference: patent US20240132431A1, “METHOD FOR ALKYLATING ACIDIC FUNCTIONAL GROUP” (Chugai Seiyaku Kabushiki Kaisha, priority 2021, published 2024)
Each block holds one molecule with its values, some of them ahead of it.

Target: T1, Bcl-2 protein (Recombinant Human Bcl-2 Protein) (Homo sapiens, UniProt P10415)
T1 construct: purchased Novus NBP2-34889
Experiment: Binding evaluation of mixture library compounds to Bcl-2 using AS-MS (affinity selection mass spectrometry)
Conditions: AS-MS, mixture of 1200 compounds, Bcl-2, ASMS Ratio(%)=(A−C)/B×100; for ASMS ratio (%) n = 1: replicate n = 1; for ASMS ratio (%) n = 2: replicate n = 2
Method in brief: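 Bcl-2 binding is scored from LC/MS signal retained with protein through gel-filtration spin columns, normalised to unfiltered and protein-free controls. Incubation: 20 μM protein, […] per compound, 1 h, 23° C.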

T1 sequence (P10415 whole entry): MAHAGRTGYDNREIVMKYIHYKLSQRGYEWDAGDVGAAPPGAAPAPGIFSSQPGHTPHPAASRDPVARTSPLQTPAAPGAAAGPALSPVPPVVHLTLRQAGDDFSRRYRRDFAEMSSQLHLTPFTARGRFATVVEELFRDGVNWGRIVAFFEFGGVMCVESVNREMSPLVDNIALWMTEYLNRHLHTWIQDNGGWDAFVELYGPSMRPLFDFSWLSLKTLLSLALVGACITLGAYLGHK

ASMS ratio (%) n = 1: 1.3%
ASMS ratio (%) n = 2: 0.1%
SMILES: CCOc1cncc(-c2cc(CN3CCN(c4ccc(C(=O)NCC(F)(F)F)cc4)CC3)cc(OC(C)C)c2)c1 [B1K058-01, 4-[4-[[3-(5-Ethoxypyridin-3-yl)-5-propan-2-yloxyphenyl]methyl]piperazin-1-yl]-N-(2,2,2-trifluoroethyl)benzamide]

ASMS ratio (%) n = 1: 2.8%
ASMS ratio (%) n = 2: −1.3%
SMILES: CCOc1cccc(-c2cc(CN3CCN(c4ccc(C(=O)NCC(F)(F)F)cc4)CC3)cc(C(F)(F)F)c2)c1 [B1K061-01, 4-[4-[[3-(3-Ethoxyphenyl)-5-(trifluoromethyl)phenyl]methyl]piperazin-1-yl]-N-(2,2,2-trifluoroethyl)benzamide]

ASMS ratio (%) n = 1: 1.2%
ASMS ratio (%) n = 2: −0.3%
SMILES: CCOc1cncc(-c2cc(CN3CCN(c4ccc(C(=O)NCC(F)(F)F)cc4)CC3)cc(C(F)(F)F)c2)c1 [B1K062-01, 4-[4-[[3-(5-Ethoxypyridin-3-yl)-5-(trifluoromethyl)phenyl]methyl]piperazin-1-yl]-N-(2,2,2-trifluoroethyl)benzamide]

ASMS ratio (%) n = 1: 1.4%
ASMS ratio (%) n = 2: 0.7%
SMILES: CCOc1cncc(-c2cc(CN3CCN(c4ccc(C(=O)NCC(F)(F)F)cc4)CC3)cc(OC(F)(F)F)c2)c1 [B1K064-01, 4-[4-[[3-(5-Ethoxypyridin-3-yl)-5-(trifluoromethoxy)phenyl]methyl]piperazin-1-yl]-N-(2,2,2-trifluoroethyl)benzamide]

ASMS ratio (%) n = 1: 5.9%
ASMS ratio (%) n = 2: −5.6%
SMILES: CCOc1cccc(-c2ccc(CN3CCN(c4ccc(C(=O)NCC(F)(F)F)cc4)CC3)c3ccccc23)c1 [B1K065-01, 4-[4-[[4-(3-Ethoxyphenyl)naphthalen-1-yl]methyl]piperazin-1-yl]-N-(2,2,2-trifluoroethyl)benzamide]

Continued, molecule first:

SMILES: CCOc1cncc(-c2ccc(CN3CCN(c4ccc(C(=O)NCC(F)(F)F)cc4)CC3)cc2F)c1 [B1K052-01, 4-[4-[[4-(5-Ethoxypyridin-3-yl)-3-fluorophenyl]methyl]piperazin-1-yl]-N-(2,2,2-trifluoroethyl)benzamide]
ASMS ratio (%) n = 1: −3.3%
ASMS ratio (%) n = 2: 0.5%

SMILES: CCOc1cccc(-c2ccc(CN3CCN(c4ccc(C(=O)NCC(F)(F)F)cc4)CC3)c(OC)c2)c1 [B1K053-01]
ASMS ratio (%) n = 1: −0.5%
ASMS ratio (%) n = 2: −3.3%

SMILES: CCOc1cncc(-c2ccc(CN3CCN(c4ccc(C(=O)NCC(F)(F)F)cc4)CC3)c(OC)c2)c1 [B1K054-01, 4-[4-[[4-(5-Ethoxypyridin-3-yl)-2-methoxyphenyl]methyl]piperazin-1-yl]-N-(2,2,2-trifluoroethyl)benzamide]
ASMS ratio (%) n = 1: 0.0%
ASMS ratio (%) n = 2: 0.0%

SMILES: CCOc1cccc(-c2cc(CN3CCN(c4ccc(C(=O)NCC(F)(F)F)cc4)CC3)cc(OCC)c2)c1 [B1K055-01, 4-[4-[[3-Ethoxy-5-(3-ethoxyphenyl)phenyl]methyl]piperazin-1-yl]-N-(2,2,2-trifluoroethyl)benzamide]
ASMS ratio (%) n = 1: −0.8%
ASMS ratio (%) n = 2: 0.0%

SMILES: CCOc1cncc(-c2cc(CN3CCN(c4ccc(C(=O)NCC(F)(F)F)cc4)CC3)cc(OCC)c2)c1 [B1K056-01, 4-[4-[[3-Ethoxy-5-(5-ethoxypyridin-3-yl)phenyl]methyl]piperazin-1-yl]-N-(2,2,2-trifluoroethyl)benzamide]
ASMS ratio (%) n = 1: 3.3%
ASMS ratio (%) n = 2: 0.2%

SMILES: CCOc1cccc(-c2cc(CN3CCN(c4ccc(C(=O)NCC(F)(F)F)cc4)CC3)cc(OC(C)C)c2)c1 [B1K057-01, 4-[4-[[3-(3-Ethoxyphenyl)-5-propan-2-yloxyphenyl]methyl]piperazin-1-yl]-N-(2,2,2-trifluoroethyl)benzamide]
ASMS ratio (%) n = 1: 1.0%
ASMS ratio (%) n = 2: −2.6%

SMILES: CCOc1cccc(-c2cc(OC)c(CN3CCN(c4ccc(C(=O)NCC(F)(F)F)cc4)CC3)c(OC)c2)c1 [B1K059-01]
ASMS ratio (%) n = 1: 3.0%
ASMS ratio (%) n = 2: −1.9%

SMILES: CCOc1cncc(-c2cc(OC)c(CN3CCN(c4ccc(C(=O)NCC(F)(F)F)cc4)CC3)c(OC)c2)c1 [B1K060-01]
ASMS ratio (%) n = 1: 0.0%
ASMS ratio (%) n = 2: 0.0%
